Legend:
Test in all cases: Transient transfection (transactivation) assay in CV-1 cells, GAL4-PPAR chimera, luciferase reporter
Assay type in all cases: cell-based
PPAR delta = target: T1, PPAR delta (Homo sapiens, UniProt Q03181)
T1 construct: expressed in transfected cells; host or cells: CV-1 cells
T1 sequence (Q03181 211-439 limits assumed): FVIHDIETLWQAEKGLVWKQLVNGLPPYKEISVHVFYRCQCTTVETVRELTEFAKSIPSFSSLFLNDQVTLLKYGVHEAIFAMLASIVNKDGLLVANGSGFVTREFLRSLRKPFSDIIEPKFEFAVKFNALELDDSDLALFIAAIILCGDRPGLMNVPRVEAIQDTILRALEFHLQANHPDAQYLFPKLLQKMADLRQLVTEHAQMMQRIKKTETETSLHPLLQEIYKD

PPAR alpha = target: T2, PPAR alpha (Homo sapiens, UniProt Q07869)
T2 construct: expressed in transfected cells; host or cells: CV-1 cells
T2 sequence (Q07869 239-466 limits assumed): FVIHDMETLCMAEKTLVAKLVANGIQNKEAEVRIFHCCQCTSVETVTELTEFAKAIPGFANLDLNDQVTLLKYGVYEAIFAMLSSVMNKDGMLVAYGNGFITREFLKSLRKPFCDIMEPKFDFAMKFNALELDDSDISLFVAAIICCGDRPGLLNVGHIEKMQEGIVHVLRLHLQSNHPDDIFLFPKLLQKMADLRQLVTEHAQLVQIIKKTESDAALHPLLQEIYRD
In short: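 EC50 and efficacy come from a luciferase read-out after 20-24 hours of compound exposure (vehicle 1% DMSO) in transiently transfected CV-1 cells. These cells express a GAL4-PPAR ligand-binding-domain chimera plus a reporter with four or five GAL4 binding sites, and are kept in phenol-red free DME with 5% delipidated calf serum.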

PPAR gamma = target: T3, PPAR gamma (Homo sapiens, UniProt P37231)
T3 construct: expressed in transfected cells; host or cells: CV-1 cells
T3 sequence (P37231 238-503 limits assumed): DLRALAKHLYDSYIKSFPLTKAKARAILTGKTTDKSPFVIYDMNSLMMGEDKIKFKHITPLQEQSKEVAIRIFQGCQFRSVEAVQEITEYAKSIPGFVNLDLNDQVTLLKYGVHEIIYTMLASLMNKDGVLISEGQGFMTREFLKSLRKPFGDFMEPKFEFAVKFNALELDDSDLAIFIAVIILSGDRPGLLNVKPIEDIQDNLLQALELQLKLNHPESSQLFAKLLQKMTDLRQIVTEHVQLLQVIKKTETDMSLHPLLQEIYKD

| EC50 (PPAR delta) [µM] | EC50 (PPAR alpha) [µM] | EC50 (PPAR gamma) [µM] | SMILES |
| --- | --- | --- | --- |
| < 5 | 5 to 100 | 5 to 100 | C[C@@H]1CN(c2ccc(OC(F)(F)F)cc2)C[C@H](C)N1S(=O)(=O)c1cc(CC(=O)O)cc(C(F)(F)F)c1 [Example 111, {3-[2,6-Dimethyl-4-(4-trifluoromethoxy-phenyl)-piperazine-1-sulfonyl]-5-trifluoromethyl-phenyl}-acetic acid] |
| < 5 | 5 to 100 | > 100 | Cc1cc(CC(=O)O)cc(S(=O)(=O)N2[C@H](C)CN(c3ccc(C(F)(F)F)c(Cl)c3)C[C@@H]2C)c1 [Example 112, {3-[4-(3-Chloro-4-trifluoromethyl-phenyl)-2,6-dimethyl-piperazine-1-sulfonyl]-5-methyl-phenyl}-acetic acid] |
| < 5 | 5 to 100 | > 100 | C[C@@H]1CN(c2ccc(C(F)(F)F)c(F)c2)C[C@H](C)N1S(=O)(=O)c1cccc(CC(=O)O)c1 [Example 113, {3-[4-(3-Fluoro-4-trifluoromethyl-phenyl)-2,6-dimethyl-piperazine-1-sulfonyl]-phenyl}-acetic acid] |
| < 5 | 5 to 100 | > 100 | C[C@@H]1CN(c2ccc(C(F)(F)F)c(Cl)c2)C[C@H](C)N1S(=O)(=O)c1cccc(CC(=O)O)c1 [Example 114, {3-[4-(3-Chloro-4-trifluoromethyl-phenyl)-2,6-dimethyl-piperazine-1-sulfonyl]-phenyl}-acetic acid] |
| < 5 | 5 to 100 | 5 to 100 | O=C(O)Cc1cccc(S(=O)(=O)N2CCN(c3ccc(Cl)c(Cl)c3)CC2)c1 [Example 115, {3-[4-(3,4-Dichloro-phenyl)-piperazine-1-sulfonyl]-phenyl}-acetic acid] |
| < 5 | > 100 | 5 to 100 | O=C(O)Cc1cccc(S(=O)(=O)N2CCN(c3ccc(Cl)cc3)CC2)c1 [Example 116, {3-[4-(4-Chloro-phenyl)-piperazine-1-sulfonyl]-phenyl}-acetic acid] |
| < 5 | > 100 | 5 to 100 | Cc1ccc(N2CCN(S(=O)(=O)c3cccc(CC(=O)O)c3)CC2)c(C)c1 [Example 117, {3-[4-(2,4-Dimethyl-phenyl)-piperazine-1-sulfonyl]-phenyl}-acetic acid] |
| 5 to 100 | > 100 | 5 to 100 | Cc1cccc(N2CCN(S(=O)(=O)c3cccc(CC(=O)O)c3)CC2C)c1 (stereo not drawn) [Example 118, [3-(3-methyl-4-m-tolyl-piperazine-1-sulfonyl)-phenyl]-acetic acid] |
| 5 to 100 | 5 to 100 | 5 to 100 | Cc1ccc(N2CCN(S(=O)(=O)c3cccc(CC(=O)O)c3)CC2)cc1C [Example 119, {3-[4-(3,4-Dimethyl-phenyl)-piperazine-1-sulfonyl]-phenyl}-acetic acid] |
| > 100 | > 100 | > 100 | Cc1ccc(Cl)cc1N1CCN(S(=O)(=O)c2cccc(CC(=O)O)c2)CC1 [Example 120, {3-[4-(5-Chloro-2-methyl-phenyl)-piperazine-1-sulfonyl]-phenyl}-acetic acid] |
| > 100 | > 100 | > 100 | O=C(O)Cc1cccc(S(=O)(=O)N2CCN(CCc3ccccc3)CC2)c1 [Example 121, [3-(4-phenethyl-piperazine-1-sulfonyl)-phenyl]-acetic acid] |
| 5 to 100 | > 100 | > 100 | N#Cc1ccc(N2CCN(S(=O)(=O)c3cccc(CC(=O)O)c3)CC2)cc1 [Example 122, {3-[4-(4-Cyano-phenyl)-piperazine-1-sulfonyl]-phenyl}-acetic acid] |
| 5 to 100 | > 100 | 5 to 100 | O=C(O)Cc1cccc(S(=O)(=O)N2CCN(Cc3ccc(F)cc3)CC2)c1 [Example 123, {3-[4-(4-Fluoro-benzyl)-piperazine-1-sulfonyl]-phenyl}-acetic acid] |
| 5 to 100 | > 100 | 5 to 100 | COc1ccc(N2CCN(S(=O)(=O)c3cccc(CC(=O)O)c3)CC2)cc1 [Example 124, {3-[4-(4-Methoxy-phenyl)-piperazine-1-sulfonyl]-phenyl}-acetic acid] |
| 5 to 100 | 5 to 100 | 5 to 100 | O=C(O)Cc1cccc(S(=O)(=O)N2CCN(c3cccc(Br)c3)CC2)c1 [Example 125, {3-[4-(3-Bromo-phenyl)-piperazine-1-sulfonyl]-phenyl}-acetic acid] |
| 5 to 100 | 5 to 100 | < 5 | CC(C)(C)c1ccc(N2CCN(S(=O)(=O)c3cccc(CC(=O)O)c3)CC2)cc1 [Example 126, {3-[4-(4-tert-butyl-phenyl)-piperazine-1-sulfonyl]-phenyl}-acetic acid] |
| > 100 | > 100 | > 100 | COc1ccc(N2CCN(S(=O)(=O)c3cccc(CC(=O)O)c3)CC2)cc1OC [Example 127, {3-[4-(3,4-Dimethoxy-phenyl)-piperazine-1-sulfonyl]-phenyl}-acetic acid] |
| 5 to 100 | 5 to 100 | 5 to 100 | O=C(O)Cc1cccc(S(=O)(=O)N2CCN(c3ccc(C(F)(F)F)cc3[N+](=O)[O-])CC2)c1 [Example 128, {3-[4-(2-Nitro-4-trifluoromethyl-phenyl)-piperazine-1-sulfonyl]-phenyl}-acetic acid] |
| > 100 | > 100 | > 100 | COc1ccccc1N1CCN(S(=O)(=O)c2cccc(CC(=O)O)c2)CC1 [Example 129, {3-[4-(2-Methoxy-phenyl)-piperazine-1-sulfonyl]-phenyl}-acetic acid] |
| > 100 | > 100 | 5 to 100 | O=C(O)Cc1cccc(S(=O)(=O)N2CCN(C3CCCCC3)CC2)c1 [Example 130, [3-(4-Cyclohexyl-piperazine-1-sulfonyl)-phenyl]-acetic acid] |
| 5 to 100 | > 100 | 5 to 100 | Cc1ccc(C)c(N2CCN(S(=O)(=O)c3cccc(CC(=O)O)c3)CC2)c1 [Example 131, {3-[4-(2,5-Dimethyl-phenyl)-piperazine-1-sulfonyl]-phenyl}-acetic acid] |
| > 100 | > 100 | 5 to 100 | O=C(O)Cc1cccc(S(=O)(=O)N2CCN(CC3CCCCC3)CC2)c1 [Example 132, [3-(4-Cyclohexylmethyl-piperazine-1-sulfonyl)-phenyl]-acetic acid] |
| > 100 | > 100 | > 100 | N#Cc1ccccc1N1CCN(S(=O)(=O)c2cccc(CC(=O)O)c2)CC1 [Example 133, {3-[4-(2-Cyano-phenyl)-piperazine-1-sulfonyl]-phenyl}-acetic acid] |
| > 100 | > 100 | 5 to 100 | O=C(O)Cc1cccc(S(=O)(=O)N2CCN(C(c3ccccc3)c3ccc(Cl)cc3)CC2)c1 (stereo not drawn) [Example 134, (3-{4-[(4-Chloro-phenyl)-phenyl-methyl]-piperazine-1-sulfonyl}-phenyl)-acetic, acid] |
| 5 to 100 | > 100 | > 100 | O=C(O)Cc1cccc(S(=O)(=O)N2CCN(c3ccc([N+](=O)[O-])cc3)CC2)c1 [Example 135, {3-[4-(4-Nitro-phenyl)-piperazine-1-sulfonyl]-phenyl}-acetic acid] |
| > 100 | > 100 | > 100 | O=C(O)Cc1cccc(S(=O)(=O)N2CCN(C(=O)c3ccco3)CC2)c1 [Example 136, {3-[4-(Furan-2-carbonyl)-piperazine-1-sulfonyl]-phenyl}-acetic acid] |
| > 100 | > 100 | > 100 | COc1cccc(N2CCN(S(=O)(=O)c3cccc(CC(=O)O)c3)CC2)c1 [Example 137, {3-[4-(3-Methoxy-phenyl)-piperazine-1-sulfonyl]-phenyl}-acetic acid] |
| > 100 | > 100 | 5 to 100 | O=C(O)Cc1cccc(S(=O)(=O)N2CCN(C(c3ccc(F)cc3)c3ccc(F)cc3)CC2)c1 [Example 138, (3-{4-[Bis-(4-fluoro-phenyl)-methyl]-piperazine-1-sulfonyl}-phenyl)-acetic acid] |
| > 100 | > 100 | > 100 | O=C(O)Cc1cccc(S(=O)(=O)N2CCN(c3ccccc3Cl)CC2)c1 [Example 140, {3-[4-(2-Chloro-phenyl)-piperazine-1-sulfonyl]-phenyl}-acetic acid] |

| SMILES | EC50 (PPAR delta) [µM] | EC50 (PPAR alpha) [µM] | EC50 (PPAR gamma) [µM] |
| --- | --- | --- | --- |
| O=C(O)Cc1cccc(S(=O)(=O)N2CCN(c3cccc(Cl)c3)CC2)c1 [Example 139, {3-[4-(3-Chloro-phenyl)-piperazine-1-sulfonyl]-phenyl}-acetic acid] | 5 to 100 | > 100 | 5 to 100 |

Reference: patent US20050234046A1 (Kalypsys, Inc., priority 2004, published 2005)
